In patent US9776997B2, “3-aryl-substituted imidazo[1,2-A]pyridines and their use” (Bayer Pharma Aktiengesellschaft, priority 2013, dated 2017):

The compounds below were run against T1, recombinant guanylate cyclase reporter cell line (Rattus norvegicus, UniProt P19686+P20595) (assay: Effect on a recombinant guanylate cyclase reporter cell line). Conditions: MEC = minimum effective concentration; in some cases mean values for individual determinations.
T1 construct: expressed in transfected cells; host or cells: recombinant reporter cell line
T1 sequence (P19686 1-690): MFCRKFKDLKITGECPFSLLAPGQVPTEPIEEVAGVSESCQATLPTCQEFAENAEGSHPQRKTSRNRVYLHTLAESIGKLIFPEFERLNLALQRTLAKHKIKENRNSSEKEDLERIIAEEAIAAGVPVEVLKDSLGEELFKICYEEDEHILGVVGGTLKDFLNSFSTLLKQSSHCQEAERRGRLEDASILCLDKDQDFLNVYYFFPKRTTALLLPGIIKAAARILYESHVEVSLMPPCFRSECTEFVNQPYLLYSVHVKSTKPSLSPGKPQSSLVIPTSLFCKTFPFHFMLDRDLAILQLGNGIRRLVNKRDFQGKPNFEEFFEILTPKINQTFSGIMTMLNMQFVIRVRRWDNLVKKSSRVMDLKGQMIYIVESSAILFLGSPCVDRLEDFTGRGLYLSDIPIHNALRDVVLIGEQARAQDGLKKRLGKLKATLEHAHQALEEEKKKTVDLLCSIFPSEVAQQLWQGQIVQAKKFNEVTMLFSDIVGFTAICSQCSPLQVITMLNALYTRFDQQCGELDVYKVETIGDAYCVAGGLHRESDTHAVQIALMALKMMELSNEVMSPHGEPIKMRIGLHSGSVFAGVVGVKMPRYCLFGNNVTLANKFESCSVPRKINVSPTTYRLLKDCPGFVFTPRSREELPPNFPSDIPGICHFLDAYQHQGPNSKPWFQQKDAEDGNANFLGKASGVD
T1 sequence (P20595 1-619): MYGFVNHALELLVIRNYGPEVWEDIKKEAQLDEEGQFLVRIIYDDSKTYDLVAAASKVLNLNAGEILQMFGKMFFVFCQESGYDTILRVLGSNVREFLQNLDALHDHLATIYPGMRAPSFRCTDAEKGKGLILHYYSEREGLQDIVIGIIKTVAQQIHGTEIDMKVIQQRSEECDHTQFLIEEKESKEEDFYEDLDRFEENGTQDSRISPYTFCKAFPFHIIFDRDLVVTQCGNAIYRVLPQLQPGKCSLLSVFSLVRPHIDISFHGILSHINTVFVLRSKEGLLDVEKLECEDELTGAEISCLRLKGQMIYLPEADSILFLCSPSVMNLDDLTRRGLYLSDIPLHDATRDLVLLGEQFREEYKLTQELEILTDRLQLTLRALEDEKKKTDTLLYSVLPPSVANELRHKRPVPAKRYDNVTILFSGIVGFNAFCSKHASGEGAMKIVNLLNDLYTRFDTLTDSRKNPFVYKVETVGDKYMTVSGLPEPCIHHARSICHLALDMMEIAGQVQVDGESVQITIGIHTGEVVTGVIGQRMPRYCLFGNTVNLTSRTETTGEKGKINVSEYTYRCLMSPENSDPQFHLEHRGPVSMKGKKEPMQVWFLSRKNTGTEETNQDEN
Assay type: cell-based
Experimental: B-2. Effect on a Recombinant Guanylate Cyclase Reporter Cell Line
The cellular effect of the inventive compounds is determined using a recombinant guanylate cyclase reporter cell line, as described in F. Wunder et al., Anal. Biochem. 339, 104-112 (2005).
Representative MEC values (MEC=minimum effective concentration) for the inventive compounds are shown in the table below (in some cases as mean values for individual determinations): […]

Row | MEC [µM] | SMILES
1 | 1.0 | Cc1cc(OCc2c(F)cccc2F)c2nc(C)c(-c3cnn(C(C)CC(=O)O)c3)n2c1 (racemic) [Example 110, rac-3-(4-{8-[(2,6-difluorobenzyl)oxy]-2,6-dimethylimidazo[1,2-a]pyridin-3-yl}-1H-pyrazol-1-yl)butanoic acid]
2 | 1.0 | CCN(CC)CCNC(=O)CC(C)n1cc(-c2c(C)nc3c(OCc4c(F)cccc4F)cc(C)cn23)cn1 (racemic) [Example 112, rac-N-[2-(Diethylamino)ethyl]-3-(4-{8-[(2,6-difluorobenzyl)oxy]-2,6-dimethylimidazo[1,2-a]pyridin-3-yl}-1H-pyrazol-1-yl)butanamide]
3 | 0.065 | Cc1nc2c(OCc3c(F)cccc3F)cccn2c1-c1cnn(Cc2ccccc2)c1 [Example 1, 3-(1-Benzyl-1H-pyrazol-4-yl)-8-[(2,6-difluorobenzyl)oxy]-2-methylimidazo[1,2-a]pyridine]
4 | 0.1 | CC(=O)c1cccc(-c2c(C)nc3c(OCc4c(F)cccc4F)cccn23)c1 [Example 2, 1-(3-{8-[(2,6-difluorobenzyl)oxy]-2-methylimidazo[1,2-a]pyridin-3-yl}phenyl)ethanone]
5 | 0.1 | Cc1cc(-c2c(C)nc3c(OCc4c(F)cccc4F)cccn23)ccn1 [Example 3, 8-[(2,6-difluorobenzyl)oxy]-2-methyl-3-(2-methylpyridin-4-yl)imidazo[1,2-a]pyridine]
6 | 0.2 | CC(=O)Nc1cccc(-c2c(C)nc3c(OCc4c(F)cccc4F)cccn23)c1 [Example 4, N-(3-{8-[(2,6-difluorobenzyl)oxy]-2-methylimidazo[1,2-a]pyridin-3-yl}phenyl)acetamide]
7 | 0.2 | CCN(C)Cc1cccc(-c2c(C)nc3c(OCc4c(F)cccc4F)cccn23)c1 [Example 5, N-(3-{8-[(2,6-difluorobenzyl)oxy]-2-methylimidazo[1,2-a]pyridin-3-yl}benzyl)-N-methylethanamine]
8 | 0.1 | CCS(=O)(=O)c1cccc(-c2c(C)nc3c(OCc4c(F)cccc4F)cccn23)c1 [Example 6, 8-[(2,6-difluorobenzyl)oxy]-3-[3-(ethylsulphonyl)phenyl]-2-methylimidazo[1,2-a]pyridine]
9 | 0.1 | Cc1nc2c(OCc3c(F)cccc3F)cccn2c1-c1cccc(C(N)=O)c1 [Example 7, 3-{8-[(2,6-difluorobenzyl)oxy]-2-methylimidazo[1,2-a]pyridin-3-yl}benzamide]
10 | 0.1 | Cc1nc2c(OCc3c(F)cccc3F)cccn2c1-c1cccc(O)c1 [Example 8, 3-{8-[(2,6-difluorobenzyl)oxy]-2-methylimidazo[1,2-a]pyridin-3-yl}phenol]
11 | 0.3 | Cc1nc2c(OCc3c(F)cccc3F)cccn2c1-c1ccc(C(=O)NC2CC2)cc1 [Example 9, N-cyclopropyl-4-{8-[(2,6-difluorobenzyl)oxy]-2-methylimidazo[1,2-a]pyridin-3-yl}benzamide]
12 | 1.0 | CCOc1ccc(-c2c(C)nc3c(OCc4c(F)cccc4F)cccn23)cc1 [Example 10, 8-[(2,6-difluorobenzyl)oxy]-3-(4-ethoxyphenyl)-2-methylimidazo[1,2-a]pyridine]
13 | 3.0 | Cc1nc2c(OCc3c(F)cccc3F)cccn2c1-c1ccnn1C [Example 11, 8-[(2,6-difluorobenzyl)oxy]-2-methyl-3-(1-methyl-1H-pyrazol-5-yl)imidazo[1,2-a]pyridine]
14 | 0.1 | Cc1cc(-c2c(C)nc3c(OCc4c(F)cccc4F)cccn23)cnc1Cl [Example 12, 3-(6-chloro-5-methylpyridin-3-yl)-8-[(2,6-difluorobenzyl)oxy]-2-methylimidazo[1,2-a]pyridine]
15 | 0.3 | Cc1nc2c(OCc3c(F)cccc3F)cccn2c1-c1cccc(Br)c1 [Example 13, 3-(3-bromophenyl)-8-[(2,6-difluorobenzyl)oxy]-2-methylimidazo[1,2-a]pyridine]
16 | 0.3 | Cc1nc2c(OCc3c(F)cccc3F)cccn2c1-c1ccsc1 [Example 14, 8-[(2,6-difluorobenzyl)oxy]-2-methyl-3-(3-thienyl)imidazo[1,2-a]pyridine]
17 | 0.065 | Cc1nc2c(OCc3c(F)cccc3F)cccn2c1-c1cccc(CN2CCCC2)c1 [Example 15, 8-[(2,6-difluorobenzyl)oxy]-2-methyl-3-[3-(pyrrolidin-1-ylmethyl)phenyl]imidazo[1,2-a]pyridine]
18 | 1.0 | Cc1nc2c(OCc3c(F)cccc3F)cccn2c1-c1ccc(F)cc1 [Example 16, 8-[(2,6-difluorobenzyl)oxy]-3-(4-fluorophenyl)-2-methylimidazo[1,2-a]pyridine]
19 | 1.0 | Cc1nc2c(OCc3c(F)cccc3F)cccn2c1-c1ccc(C#N)cc1 [Example 17, 4-{8-[(2,6-difluorobenzyl)oxy]-2-methylimidazo[1,2-a]pyridin-3-yl}benzonitrile]
20 | 1.0 | CCOC(=O)c1cccc(-c2c(C)nc3c(OCc4c(F)cccc4F)cccn23)c1 [Example 18, Ethyl 3-{8-[(2,6-difluorobenzyl)oxy]-2-methylimidazo[1,2-a]pyridin-3-yl}benzoate]
21 | 1.0 | Cc1nc2c(OCc3c(F)cccc3F)cccn2c1-c1cnc2ccccc2c1 [Example 19, 3-{8-[(2,6-difluorobenzyl)oxy]-2-methylimidazo[1,2-a]pyridin-3-yl}quinoline]
22 | 1.0 | Cc1nc2c(OCc3c(F)cccc3F)cccn2c1-c1cccc(CN2CCOCC2)c1 [Example 21, 8-[(2,6-difluorobenzyl)oxy]-2-methyl-3-[3-(morpholin-4-ylmethyl)phenyl]imidazo[1,2-a]pyridine]
23 | 1.0 | CCCOc1ccc(-c2c(C)nc3c(OCc4c(F)cccc4F)cccn23)cn1 [Example 22, 8-[(2,6-difluorobenzyl)oxy]-2-methyl-3-(6-propoxypyridin-3-yl)imidazo[1,2-a]pyridine]
24 | 1.0 | Cc1nc2c(OCc3c(F)cccc3F)cccn2c1-c1ccc2c(c1)COC2=O [Example 23, 5-{8-[(2,6-difluorobenzyl)oxy]-2-methylimidazo[1,2-a]pyridin-3-yl}-2-benzofuran-1(3H)-one]
25 | 1.0 | Cc1nc2c(OCc3c(F)cccc3F)cccn2c1-c1cccc(OC(F)(F)F)c1 [Example 24, 8-[(2,6-difluorobenzyl)oxy]-2-methyl-3-[3-(trifluormethoxy)phenyl]imidazo[1,2-a]pyridine]
26 | 1.0 | COc1ccc(-c2c(C)nc3c(OCc4c(F)cccc4F)cccn23)cc1 [Example 25, 8-[(2,6-difluorobenzyl)oxy]-3-(4-methoxyphenyl)-2-methylimidazo[1,2-a]pyridine]
27 | 1.0 | Cc1nc2c(OCc3c(F)cccc3F)cccn2c1-c1ccc(CN(C)C)cc1 [Example 26, 1-(4-{8-[(2,6-difluorobenzyl)oxy]-2-methylimidazo[1,2-a]pyridin-3-yl}phenyl)-N,N-dimethylmethanamine]
28 | 1.0 | COCCN(C)Cc1cc(-c2c(C)nc3c(OCc4c(F)cccc4F)cccn23)ccc1OC [Example 27, N-(5-{8-[(2,6-difluorobenzyl)oxy]-2-methylimidazo[1,2-a]pyridin-3-yl}-2-methoxybenzyl)-2-methoxy-N-methylethanamine]
